Measurements as given in patent US20250002507A1, “7,8-DIHYDRO-5H-1,6-NAPHTHYRIDINE DERIVATIVES AS POSITIVE ALLOSTERIC MODULATORS OF THE MUSCARINIC ACETYLCHOLINE RECEPTOR M4 FOR TREATING NEUROLOGICAL AND PSYCHIATRIC DISORDERS” (Vanderbilt University, priority 2021, published 2025).
Where two headings read alike, the source gives them in different places.

Biological target: T1, Human M4 (Homo sapiens, UniProt P08173)
T1 construct: expressed in transfected cells
T1 sequence (P08173 1-479): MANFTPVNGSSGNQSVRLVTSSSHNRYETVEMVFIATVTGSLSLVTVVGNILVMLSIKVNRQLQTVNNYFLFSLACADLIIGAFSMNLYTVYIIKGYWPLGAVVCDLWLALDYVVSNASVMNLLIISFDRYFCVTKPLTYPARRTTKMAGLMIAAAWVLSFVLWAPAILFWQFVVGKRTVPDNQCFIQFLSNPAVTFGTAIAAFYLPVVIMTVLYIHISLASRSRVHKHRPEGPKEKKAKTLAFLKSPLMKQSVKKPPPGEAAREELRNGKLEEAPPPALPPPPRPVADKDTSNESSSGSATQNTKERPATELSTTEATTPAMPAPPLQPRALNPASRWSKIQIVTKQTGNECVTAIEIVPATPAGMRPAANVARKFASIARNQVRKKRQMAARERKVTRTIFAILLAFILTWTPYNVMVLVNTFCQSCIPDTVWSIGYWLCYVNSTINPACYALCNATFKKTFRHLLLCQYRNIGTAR
Assay: mAChR M4 cell-based functional assay (calcium flux, potentiation of EC20 acetylcholine response), hM4-Gqi5 CHO-K1 cells
Conditions: for Emax at 30 µM: % ACh maximum at 30 μM; for EC50: calcium flux, read-out: Human M4 EC50
Summary of the method: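 Positive allosteric modulation was scored as a concentration-dependent rise in the response to an EC20 dose of acetylcholine, added 144 s after the compound. Human M4-Gqi5 CHO-K1 cells carried Fluo-4 dye, and compounds ran as 11-point, 3-fold dilution series. EC50 and Emax came from four-parameter logistic fits of the FDSS fluorescence-ratio traces.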

[1] = CHO-K1, human M4, read-out: Emax
[2] = hM4-Gqi5 CHO-K1 cells, PAM of EC20 acetylcholine
[3] = CHO-K1, read-out: Emax (% ACh maximum at 30 μM)
[4] = Table 3, potentiation of EC20 acetylcholine response, CHO-K1 cells
[5] = CHO-K1, Table 3, Human M4, read-out: Emax (% ACh maximum at 30 μM)

Structure (SMILES) | Emax at 30 µM [1] [%] | EC50 [2] [nM] | EC50 [4] [nM] | Emax at 30 µM [5] [%] | further results
Cc1cc2nccn2nc1N1CCc2ncc(-c3cnn(C)c3)cc2C1 [Compound 141, 6-(7-methylimidazo[1,2-b]pyridazin-6-yl)-3-(1-methylpyrazol-4-yl)-7,8-dihydro-5H-1,6-naphthyridine] | 91 | 583 | – | – | –
Cc1c(N2CCc3ncc(-c4cnn(C5CC5)c4)cc3C2)nn2cnnc2c1C [Compound 142, 3-(1-cyclopropylpyrazol-4-yl)-6-(7,8-dimethyl-[1,2,4]triazolo[4,3-b]pyridazin-6-yl)-7,8-dihydro-5H-1,6-naphthyridine] | 93 | 169 | – | – | –
Cc1cc2nncn2nc1N1CCc2ncc(-c3cnn(C4CC4)c3)cc2C1 [Compound 143, 3-(1-cyclopropylpyrazol-4-yl)-6-(7-methyl-[1,2,4]triazolo[4,3-b]pyridazin-6-yl)-7,8-dihydro-5H-1,6-naphthyridine] | 89 | 138 | – | – | –
Cc1cc2nccn2nc1N1CCc2ncc(-c3cnn(CC(C)C)c3)cc2C1 [Compound 144, 3-(1-isobutylpyrazol-4-yl)-6-(7-methylimidazo[1,2-b]pyridazin-6-yl)-7,8-dihydro-5H-1,6-naphthyridine] | 44 | 266 | – | – | –
Cc1cc2nccn2nc1N1CCc2ncc(-c3cnn(C4CC4)c3)cc2C1 [Compound 145, 3-(1-cyclopropylpyrazol-4-yl)-6-(7-methylimidazo[1,2-b]pyridazin-6-yl)-7,8-dihydro-5H-1,6-naphthyridine] | 74 | 304 | – | – | –
Cc1c(N2CCc3ncc(-c4cnn(CC(C)C)c4)cc3C2)nn2cnnc2c1C [Compound 146, 6-(7,8-dimethyl-[1,2,4]triazolo[4,3-b]pyridazin-6-yl)-3-(1-isobutylpyrazol-4-yl)-7,8-dihydro-5H-1,6-naphthyridine] | 107 | 227 | – | – | –
Cc1cc2nncn2nc1N1CCc2ncc(-c3cnn(CC(C)C)c3)cc2C1 [Compound 147, 3-(1-isobutylpyrazol-4-yl)-6-(7-methyl-[1,2,4]triazolo[4,3-b]pyridazin-6-yl)-7,8-dihydro-5H-1,6-naphthyridine] | 99 | 477 | – | – | –
Cc1c(N2CCc3ncc(-c4cnn(C5CCNCC5)c4)cc3C2)nn2cnnc2c1C [Compound 148, 6-(7,8-dimethyl-[1,2,4]triazolo[4,3-b]pyridazin-6-yl)-3-[1-(4-piperidyl)pyrazol-4-yl]-7,8-dihydro-5H-1,6-naphthyridine] | 106 | 296 | – | – | –
Cc1cc2nncn2nc1N1CCc2ncc(-c3cnn(C4CCNCC4)c3)cc2C1 [Compound 149, 6-(7-methyl-[1,2,4]triazolo[4,3-b]pyridazin-6-yl)-3-[1-(4-piperidyl)pyrazol-4-yl]-7,8-dihydro-5H-1,6-naphthyridine] | 107 | 316 | – | – | –
Cc1cc2nccn2nc1N1CCc2ncc(-c3cnn(C4CCNCC4)c3)cc2C1 [Compound 150, 6-(7-methylimidazo[1,2-b]pyridazin-6-yl)-3-[1-(4-piperidyl)pyrazol-4-yl]-7,8-dihydro-5H-1,6-naphthyridine] | 87 | 568 | – | – | –
Cc1cc2nncn2nc1N1CCc2ncccc2C1 [Compound 151, 6-(7-methyl-[1,2,4]triazolo[4,3-b]pyridazin-6-yl)-7,8-dihydro-5H-1,6-naphthyridine] | – | – | – | – | Emax (CHO-K1): 93%
Cc1c(N2CCc3ncc(N)cc3C2)nn2cnnc2c1C [Compound 152, 6-(7,8-dimethyl-[1,2,4]triazolo[4,3-b]pyridazin-6-yl)-5,6,7,8-tetrahydro-1,6-naphthyridin-3-amine] | – | – | 1280 | – | Emax [3]: 102%
CC(=O)Nc1cnc2c(c1)CN(c1nn3cnnc3c(C)c1C)CC2 [Compound 153, N-(6-(7,8-dimethyl-[1,2,4]triazolo[4,3-b]pyridazin-6-yl)-5,6,7,8-tetrahydro-1,6-naphthyridin-3-yl)acetamide] | – | – | 3380 | 84 | –
Cc1c(N2CCc3ncc(NC(=O)C(C)C)cc3C2)nn2cnnc2c1C [Compound 154, N-(6-(7,8-dimethyl-[1,2,4]triazolo[4,3-b]pyridazin-6-yl)-5,6,7,8-tetrahydro-1,6-naphthyridin-3-yl)isobutyramide] | – | – | 3630 | 79 | –
COc1ccc(C(=O)Nc2cnc3c(c2)CN(c2nn4cnnc4c(C)c2C)CC3)cn1 [Compound 155, N-(6-(7,8-dimethyl-[1,2,4]triazolo[4,3-b]pyridazin-6-yl)-5,6,7,8-tetrahydro-1,6-naphthyridin-3-yl)-6-methoxynicotinamide] | – | – | 966 | 92 | –
Cc1ccccc1C(=O)Nc1cnc2c(c1)CN(c1nn3cnnc3c(C)c1C)CC2 [Compound 156, N-(6-(7,8-dimethyl-[1,2,4]triazolo[4,3-b]pyridazin-6-yl)-5,6,7,8-tetrahydro-1,6-naphthyridin-3-yl)-2-methylbenzamide] | – | – | 4210 | 70 | –
Cc1cccc(C(=O)Nc2cnc3c(c2)CN(c2nn4cnnc4c(C)c2C)CC3)c1 [Compound 157, N-(6-(7,8-dimethyl-[1,2,4]triazolo[4,3-b]pyridazin-6-yl)-5,6,7,8-tetrahydro-1,6-naphthyridin-3-yl)-3-methylbenzamide] | – | – | 785 | 96 | –
Cc1c(N2CCc3ncc(NC(=O)c4ccc(F)cc4)cc3C2)nn2cnnc2c1C [Compound 158, N-(6-(7,8-dimethyl-[1,2,4]triazolo[4,3-b]pyridazin-6-yl)-5,6,7,8-tetrahydro-1,6-naphthyridin-3-yl)-4-fluorobenzamide] | – | – | 672 | 79 | –
Cc1c(N2CCc3ncc(Oc4ccccc4F)cc3C2)nn2cnnc2c1C [Compound 159, 6-(7,8-dimethyl-[1,2,4]triazolo[4,3-b]pyridazin-6-yl)-3-(2-fluorophenoxy)-5,6,7,8-tetrahydro-1,6-naphthyridine] | – | – | 107 | 109 | –
Cc1c(N2CCc3ncc(Oc4cccc(F)c4)cc3C2)nn2cnnc2c1C [Compound 160, 6-(7,8-dimethyl-[1,2,4]triazolo[4,3-b]pyridazin-6-yl)-3-(3-fluorophenoxy)-5,6,7,8-tetrahydro-1,6-naphthyridine] | – | – | 145 | 111 | –
COc1nc2c(cc1C)CN(c1nn3cnnc3c(C)c1C)CC2 [Compound 161, 6-(7,8-dimethyl-[1,2,4]triazolo[4,3-b]pyridazin-6-yl)-2-methoxy-3-methyl-5,6,7,8-tetrahydro-1,6-naphthyridine] | – | – | 2750 | 105 | –
Cc1cnc2c(c1)CN(c1nn3cc(C(=O)N4CCOCC4)nc3cc1C)CC2 [Compound 162, (7-methyl-6-(3-methyl-7,8-dihydro-1,6-naphthyridin-6(5H)-yl)imidazo[1,2-b]pyridazin-2-yl)(morpholino)methanone] | – | – | 846 | 105 | –
Cc1c(N2CCc3ncc(Nc4cnn(C)c4)cc3C2)nn2cnnc2c1C [Compound 163, 6-(7,8-dimethyl-[1,2,4]triazolo[4,3-b]pyridazin-6-yl)-N-(1-methyl-1H-pyrazol-4-yl)-5,6,7,8-tetrahydro-1,6-naphthyridin-3-amine] | – | – | 754 | 107 | –
Cc1c(N2CCc3ncc(Nc4ccnn4C)cc3C2)nn2cnnc2c1C [Compound 164, 6-(7,8-dimethyl-[1,2,4]triazolo[4,3-b]pyridazin-6-yl)-N-(1-methyl-1H-pyrazol-5-yl)-5,6,7,8-tetrahydro-1,6-naphthyridin-3-amine] | – | – | 152 | 109 | –
CCC(C)(O)c1cnc2c(c1)CN(c1nn3cnnc3c(C)c1C)CC2 (stereo not shown) [Compound 165, 2-(6-(7,8-dimethyl-[1,2,4]triazolo[4,3-b]pyridazin-6-yl)-5,6,7,8-tetrahydro-1,6-naphthyridin-3-yl)butan-2-ol] | – | – | 1870 | 102 | –
Cc1c(N2CCc3ncc(C(C)(O)C4CC4)cc3C2)nn2cnnc2c1C (stereo not shown) [Compound 166, 1-cyclopropyl-1-(6-(7,8-dimethyl-[1,2,4]triazolo[4,3-b]pyridazin-6-yl)-5,6,7,8-tetrahydro-1,6-naphthyridin-3-yl)ethan-1-ol] | – | – | 1850 | 95 | –
Cc1cc2c(nc1C)CCN(c1nn3cnnc3c(C)c1C)C2 [Compound 167, 6-(7,8-dimethyl-[1,2,4]triazolo[4,3-b]pyridazin-6-yl)-2,3-dimethyl-5,6,7,8-tetrahydro-1,6-naphthyridine] | – | – | 188 | – | Emax [3]: 106%
Cc1cnc2c(c1)CN(c1nn3cc(C(=O)NC4CC4)nc3cc1C)CC2 [Compound 168, N-cyclopropyl-7-methyl-6-(3-methyl-7,8-dihydro-1,6-naphthyridin-6(5H)-yl)imidazo[1,2-b]pyridazine-2-carboxamide] | – | – | 3250 | 54 | –
